Values quoted from earlier work as cited in US20250090522A1 (priority 2021, published 2025).
“Also recorded” adds a separate entry of the source. Read-outs that look alike come from different tables or passages of the source.

How the values were obtained:
[1] = not given; remark: listed apart in the source
[2] = not given; remark: listed apart in the source
[3] = withdrawn from the US market in 1999
[4] = 421 patients with allergy/asthma treated for six months; p<0.001 for all scales
RANTES = conditions: dose-dependent manner
H1 receptor = H1 receptor (Homo sapiens, UniProt P35367); conditions: acidic pH
H1 receptor, sequence (P35367 whole entry): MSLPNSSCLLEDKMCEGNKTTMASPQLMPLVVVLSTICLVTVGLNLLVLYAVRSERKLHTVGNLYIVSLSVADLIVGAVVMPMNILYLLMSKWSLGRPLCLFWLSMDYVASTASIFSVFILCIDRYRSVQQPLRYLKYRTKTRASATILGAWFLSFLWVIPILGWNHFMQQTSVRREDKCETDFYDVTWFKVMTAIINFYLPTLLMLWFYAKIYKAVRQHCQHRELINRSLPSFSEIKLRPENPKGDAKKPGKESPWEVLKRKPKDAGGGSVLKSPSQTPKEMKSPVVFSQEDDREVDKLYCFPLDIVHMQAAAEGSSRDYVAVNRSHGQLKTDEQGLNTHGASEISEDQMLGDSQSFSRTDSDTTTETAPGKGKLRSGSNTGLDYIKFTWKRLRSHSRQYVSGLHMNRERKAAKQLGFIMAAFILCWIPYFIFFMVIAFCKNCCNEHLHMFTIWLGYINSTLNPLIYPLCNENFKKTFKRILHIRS

[5] = tested on: chronic idiopathic urticaria (CIU); conditions: from 5 to 20 mg/day
[6] = tested on: activator protein-1 (AP-1); conditions: H1 receptor-dependent and independent mechanisms
[7] = tested on: histamine induced wheal and flare
[8] = airway epithelial cells from nose and lung

## CC(C)(O)c1ccccc1CC[C@@H](SCC1(CC(=O)O)CC1)c1cccc(/C=C/c2ccc3ccc(Cl)cc3n2)c1 [Montelukast]
Adult patients, 22 weeks
  doses administered without clinically relevant side effects: up to 200 mg/day
short-term studies, approximately one week
  doses administered without clinically relevant side effects: up to 900 mg/day
[1]; compared to inhaled corticosteroids (ICS)
  risk of mental health side effects: no increased risk
[1]; patients with a psychiatric history, compared to ICS patients
  risk of outpatient depression: decreased risk
[2]; in vivo
  linear pharmacokinetics to: pharmacokinetics to 50 mg/day
[2]; with warfarin, theophylline, digoxin, terfenadine, oral contraceptives, or prednisone
  drug interactions: no drug interactions

## COc1ccc(CCN2CCC(Nc3nc4ccccc4n3Cc3ccc(F)cc3)CC2)cc1 [astemizole]
MERSCoV
  activity against MERSCoV: astemizole was active against both
SARS-CoV
  activity against SARS-CoV: astemizole was active against both
[3]
  cardiac toxicity: prolongation of the QTc interval

## O=C(O)COCCN1CCN([C@H](c2ccccc2)c2ccc(Cl)cc2)CC1 [Levocetirizine]
[4]
  quality of life (SF-36): improved quality of life across all treatment domains; also recorded: independently improve quality of life
RANTES
  tumor necrosis factor-a induced production of the chemokine RANTES: decrease
H1 receptor
  enhanced receptor affinity over first generation mepyramine: 5 ×
Studies in humans
  doses that can be safely administered: up to 30 mg/day
[5]
  efficacy in CIU on titration: Titratable with increasing efficacy
Human rhinovirus (HRV); [8]
  HRV viral replication: inhibit
  HRV-induced ICAM-1: inhibit
  HRV-induced cytokine expression: inhibit
Human rhinovirus (HRV); cell and clinical science
  antiviral activity against human rhinovirus-16 (HRV-16): Cell and clinical science-antiviral
[6]
  activator protein-1 (AP-1) activity: inhibit
[2]; in vivo
  time to steady state level: 40 h
[7]; histamine wheal and flare data
  potency among the five modern generation antihistamines: most potent
[7]; levocetirizine 5 mg per day versus fexofenadine 180 mg per day
  effectiveness versus fexofenadine: more effective than fexofenadine
